Measurements reported in paper doi:10.1101/2025.08.06.668955, “High-Affinity, Structure-Validated and Selective Macrocyclic Peptide Tools for Chemical Biology Studies of Huntingtin” (bioRxiv, 2025).
Where a SMILES comes first, the peptide text is derived from it. Bridges are numbered along the chain shown (N, C = ends).

System: HAP40
Assay: Macrocycle precipitation (MP), co-purification of HAP40, LC-MS/MS
Format: binding, human
Conditions: HEK293T lysate versus HTT CRISPR knockout line

CC(C)C[C@@H]1NC(=O)[C@H](Cc2ccc(O)cc2)NC(=O)[C@H](CCCNC(=N)N)NC(=O)[C@H](C)NC(=O)[C@H]([C@@H](C)O)NC(=O)[C@H](Cc2ccc(O)cc2)NC(=O)CSC[C@@H](C(N)=O)NC(=O)[C@H](CCCCN)NC(=O)[C@H](Cc2ccc(O)cc2)NC(=O)[C@H](Cc2c[nH]cn2)NC(=O)[C@H](CC(C)C)NC(=O)[C@H]([C@@H](C)O)NC(=O)CNC(=O)[C@H](CC(C)C)NC(=O)[C@H]([C@@H](C)O)NC1=O [HL2] ({CH2CO}-YTARYLTLGTLHYKC-NH2; thioether N-15; C-terminus assumed)
Enrichment of HAP40 in macrocycle pulldowns: consistently enriched
